In the supplement of paper PMC11061612:

What was measured:
Assay in all cases: combination Emax (second highest fraction inhibited in the dose matrix, 72 h); higher = more inhibition; extreme values may be limits of the assay
[1] = test system: 697 (B-Lymphoblastic Leukemia)
In short: (§1)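 After 24 hours at 37°C and 5% CO2 in 1536-well plates, cells in DMEM/F12 or RPMI plus 10% FBS received two-drug dose matrices for 72 hours. Viability came from CellTiter-Glo 2.0 luminescence and was scaled as inhibition, anchored at 0 by vehicle wells and at 1 by blank wells. Combination Emax is taken as the second-highest inhibition in the matrix, and Bliss excess as the observed combination effect less EA + EB − EA·EB, with EA and EB the single-agent effects.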

[2] = test system: CTV-1 (T-Lymphoblastic Leukemia)
In short: as §1

[3] = test system: DB (B-Cell Non-Hodgkin's Lymphoma)
In short: as §1

[4] = test system: DMS-273 (Small Cell Lung Carcinoma)
In short: as §1

DSH1 (Bladder Carcinoma) = test system: DSH1 (Bladder Carcinoma)
In short: as §1

IGR-1 (Melanoma) = test system: IGR-1 (Melanoma)
In short: as §1

[5] = test system: KARPAS-1106P (B-Cell Non-Hodgkin's Lymphoma)
In short: as §1

[6] = test system: KATOIII (Gastric Carcinoma)
In short: as §1

[7] = test system: MFH-ino (Other Solid Carcinomas)
In short: as §1

[8] = test system: NCI-H1299 (Non-Small Cell Lung Carcinoma)
In short: as §1

[9] = test system: NCI-H1694 (Small Cell Lung Carcinoma)
In short: as §1

[10] = test system: NCI-H1781 (Lung Adenocarcinoma)
In short: as §1

NCI-H2595 (Mesothelioma) = test system: NCI-H2595 (Mesothelioma)
In short: as §1

[11] = test system: OCI-AML2 (Acute Myeloid Leukemia)
In short: as §1

RH-1 (Ewing's Sarcoma) = test system: RH-1 (Ewing's Sarcoma)
In short: as §1

SK-N-FI (Neuroblastoma) = test system: SK-N-FI (Neuroblastoma)
In short: as §1

[12] = test system: SW1990 (Pancreatic Carcinoma)
In short: as §1

[13] = test system: SW756 (Cervical Carcinoma)
In short: as §1

[14] = test system: SW780 (Bladder Carcinoma)
In short: as §1

[15] = test system: U-266 (Plasma Cell Myeloma)
In short: as §1

SMILES | combination Emax [1] | combination Emax [2] | combination Emax [3] | combination Emax [4] | combination Emax (DSH1 (Bladder Carcinoma)) | combination Emax (IGR-1 (Melanoma)) | combination Emax [5] | combination Emax [6] | combination Emax [7] | combination Emax [8] | combination Emax [9] | combination Emax [10] | combination Emax (NCI-H2595 (Mesothelioma)) | combination Emax [11] | combination Emax (RH-1 (Ewing's Sarcoma)) | combination Emax (SK-N-FI (Neuroblastoma)) | combination Emax [12] | combination Emax [13] | combination Emax [14] | combination Emax [15]
CS(=O)(=O)CCNCc1ccc(-c2ccc3ncnc(Nc4ccc(OCc5cccc(F)c5)c(Cl)c4)c3c2)o1 [Lapatinib] + C[C@@H](Oc1cc(-c2cnn(C3CCNCC3)c2)cnc1N)c1c(Cl)ccc(F)c1Cl [Crizotinib] (first compound max 10 µM, 7x7, partner max 10 µM) | 0.996 | 1 | 0.953 | 0.954 | 1 | 0.987 | 0.938 | 0.627 | 0.25 | 0.492 | 0.291 | 0.774 | 0.458 | 0.915 | 0.939 | 0.601 | 0.331 | 0.313 | 0.489 | 0.495
CC(=O)Nc1cccc(-n2c(=O)n(C3CC3)c(=O)c3c(Nc4ccc(I)cc4F)n(C)c(=O)c(C)c32)c1 [Trametinib] + Cc1nc(-c2cn3c(n2)-c2ccc(-c4cnn(C(C)(C)C(N)=O)c4)cc2OCC3)n(C(C)C)n1 [Taselisib] (first compound max 1 µM, 7x7, partner max 10 µM) | 0.653 | 0.96 | 0.212 | 0.591 | 0.994 | 0.759 | 0.749 | 0.793 | 0.583 | 0.68 | 0.324 | 0.88 | 0.404 | 1 | 0.594 | 0.954 | 0.971 | 0.626 | 0.541 | 0.796
Cc1c2c(nn1C)CSCc1cc(n(C)n1)CSc1cc(c3ccccc3c1)OCCCc1c(C(=O)O)n(C)c3c-2c(Cl)ccc13 [AZD5991] + CN(C)CCCOc1ccc(-c2ccc3ncc4c(c3c2)n(C2CCOCC2)c(=O)n4C)cn1 [AZD0156] (first compound max 1 µM, 7x7, partner max 1 µM) | 1 | 0.301 | 0.974 | 0.976 | 0.638 | 0.327 | 0.925 | 0.182 | 0.22 | 0.368 | 0.98 | 0.665 | 0.328 | 0.961 | 0.666 | 0.443 | 0.241 | 0.203 | 0.206 | 0.919
C=CCn1c(=O)c2cnc(Nc3ccc(N4CCN(C)CC4)cc3)nc2n1-c1cccc(C(C)(C)O)n1 [AZD1775] + O=C(c1cc(Cc2n[nH]c(=O)c3ccccc23)ccc1F)N1CCN(C(=O)C2CC2)CC1 [Olaparib] (first compound max 1 µM, partner max 10 µM) | 1 | 0.977 | 0.912 | 0.549 | 0.369 | 0.296 | 0.872 | 0.198 | 0.413 | 0.792 | 0.404 | 0.538 | 0.179 | 0.992 | 1 | 0.715 | 0.404 | 0.35 | 0.209 | 0.763
Cc1c2c(nn1C)CSCc1cc(n(C)n1)CSc1cc(c3ccccc3c1)OCCCc1c(C(=O)O)n(C)c3c-2c(Cl)ccc13 [AZD5991] + C1CN(CCC1(C(=O)N[C@@H](CCO)C2=CC=C(C=C2)Cl)N)C3=NC=NC4=C3C=CN4 [Capivasertib] (first compound max 1 µM, 7x7, partner max 3 µM) | 1 | 0.337 | 0.987 | 0.987 | 0.927 | 0.26 | 0.901 | 0.233 | 0.248 | 0.224 | 1 | 0.76 | 0.311 | 1 | 0.795 | 0.514 | 0.121 | 0.136 | 0.165 | 0.97
NC1(C(=O)N[C@@H](CCO)c2ccc(Cl)cc2)CCN(c2ncnc3[nH]ccc23)CC1 [Capivasertib] + CCN(CCO)CCCOc1ccc2c(Nc3cc(CC(=O)Nc4cccc(F)c4)[nH]n3)ncnc2c1 [AZD2811] (first compound max 10 µM, 7x7, partner max 1 µM) | 1 | 0.636 | 0.635 | 0.906 | 0.668 | 0.465 | 0.502 | 0.295 | 0.318 | 0.364 | 0.508 | 0.799 | 0.261 | 0.904 | 0.981 | 0.396 | 0.136 | 0.287 | 0.28 | 0.312
Cc1c2c(nn1C)CSCc1cc(n(C)n1)CSc1cc(c3ccccc3c1)OCCCc1c(C(=O)O)n(C)c3c-2c(Cl)ccc13 [AZD5991] + C=CCn1c(=O)c2cnc(Nc3ccc(N4CCN(C)CC4)cc3)nc2n1-c1cccc(C(C)(C)O)n1 [AZD1775] (first compound max 1 µM, partner max 1 µM) | 1 | 0.925 | 0.999 | 0.987 | 0.791 | 0.63 | 0.997 | 0.237 | 0.31 | 0.83 | 0.961 | 0.65 | 0.282 | 1 | 0.994 | 0.744 | 0.537 | 0.427 | 0.172 | 0.99
